# How the values were obtained:
# Test in all cases: SelectScreen LanthaScreen Binding
# Settings in all cases: 1000 nM
# [1] = target: T1, DDR2 (Homo sapiens, UniProt Q16832)
# T1 sequence (Q16832 22-855): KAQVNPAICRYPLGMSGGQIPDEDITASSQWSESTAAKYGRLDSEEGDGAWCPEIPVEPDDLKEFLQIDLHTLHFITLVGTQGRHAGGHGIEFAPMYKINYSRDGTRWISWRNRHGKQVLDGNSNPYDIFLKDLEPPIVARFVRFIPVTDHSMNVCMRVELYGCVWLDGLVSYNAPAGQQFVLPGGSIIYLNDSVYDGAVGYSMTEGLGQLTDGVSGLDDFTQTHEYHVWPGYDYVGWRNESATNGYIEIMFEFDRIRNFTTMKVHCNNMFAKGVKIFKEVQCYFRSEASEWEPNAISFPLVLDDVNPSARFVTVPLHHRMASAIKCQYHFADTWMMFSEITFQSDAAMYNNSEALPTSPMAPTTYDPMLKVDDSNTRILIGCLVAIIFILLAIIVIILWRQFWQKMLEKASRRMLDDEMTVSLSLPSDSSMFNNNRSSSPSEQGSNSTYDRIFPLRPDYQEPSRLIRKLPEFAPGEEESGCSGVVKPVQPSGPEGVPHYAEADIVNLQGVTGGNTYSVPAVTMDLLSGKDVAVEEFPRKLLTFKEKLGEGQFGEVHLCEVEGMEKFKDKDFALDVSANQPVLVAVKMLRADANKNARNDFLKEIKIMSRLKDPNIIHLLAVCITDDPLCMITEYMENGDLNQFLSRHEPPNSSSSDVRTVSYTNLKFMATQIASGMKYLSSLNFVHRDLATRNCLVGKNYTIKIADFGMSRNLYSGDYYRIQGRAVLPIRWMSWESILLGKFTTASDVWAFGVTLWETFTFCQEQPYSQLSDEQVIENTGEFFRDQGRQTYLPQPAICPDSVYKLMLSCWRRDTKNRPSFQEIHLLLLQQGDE
# Procedure: (§1) 133 protein kinases and 7 lipid kinases were counterscreened, with 1938 used at 1 μM, using the Adapta, Lantha and Z-LYTE assays (SelectScreen Kinase Profiling Service; Thermofisher – experimental details of these assays can be found here: https://www.thermofisher.com/uk/en/home/industrial/pharma-biopharma/drug-discovery-development/target-and-lead-identification-and-validation/kinasebiology/kinase-activity-assays.html. The tree represention in KinMap[59] generated courtesy of Cell Signaling Technology, Inc. (www.cellsignal.com). mTORC1 (mTOR/RAPTOR/LST8) protein complex and ATM kinase and substrates were produced as previously described[57],[60]. Screening of 1938 was conducted using SuperSep Phos-Tag 50 μmol/l 100 x 100 x 6.6 mm 17-well (192-18001/199-18011) gels. For ATM assays, 100 nM ATM was incubated for 30 min at 30°C with 5 μM GST-p53 and 1 mM ATP, in the absence or presence of 200 μM 1938 in ATM Kinase Buffer (50 mM HEPES pH 7.5, 100 mM NaCl, 10% glycerol, 2 mM […], 5 mM MgCl2). As a positive control for ATM activation, the same reaction was carried out with 100 nM ATM/5 μM GST-p53/1 mM ATP in the presence of 100 nM Mre11-Rad50-Nbs1 (MRN) complex, a known activator of ATM[61]. For mTORC1 assays, 50 nM mTORC1 complex (mTOR/LST8/RAPTOR) was incubated for 3 h at 30°C with 15 μM 4E-BP1, 10 mM MgCl2 and 250 μM ATP, in the absence or presence of 200 μM 1938. As a ‘positive’ control, a higher concentration (150 nM) of mTORC1 complex (mTOR/LST8/RAPTOR) was incubated for 3 h at 30°C with 15 μM 4E-BP1, 10 mM MgCl2 and 250 μM ATP. Kinase reactions were quenched by addition of SDS-PAGE Loading Buffer (as per manufacturer’s instructions) and freezing at -20°C before being run on the Phos-tag gels at 150 V for 90 min. Gels were then stained using InstantBlue™ Coomassie, and quantified using BioRad Image Lab Software. Kinase assays were carried out in triplicate.
# [2] = target: T2, STK17A (DRAK1) (Homo sapiens, UniProt Q9UEE5)
# T2 sequence (Q9UEE5 1-414): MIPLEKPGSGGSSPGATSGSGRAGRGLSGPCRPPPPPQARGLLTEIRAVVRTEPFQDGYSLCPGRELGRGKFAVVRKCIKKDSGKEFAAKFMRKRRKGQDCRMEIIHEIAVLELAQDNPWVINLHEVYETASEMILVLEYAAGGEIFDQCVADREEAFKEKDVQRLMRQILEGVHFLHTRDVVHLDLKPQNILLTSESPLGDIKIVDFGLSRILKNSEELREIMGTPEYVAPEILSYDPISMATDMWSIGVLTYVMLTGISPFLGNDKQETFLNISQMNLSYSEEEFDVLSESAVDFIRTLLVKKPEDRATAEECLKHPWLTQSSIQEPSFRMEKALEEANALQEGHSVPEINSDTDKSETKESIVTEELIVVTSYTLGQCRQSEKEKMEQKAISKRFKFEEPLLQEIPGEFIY
# Procedure: as §1
# [3] = target: TNIK (Homo sapiens, UniProt Q9UKE5)
# Chain of TNIK (Q9UKE5 whole entry): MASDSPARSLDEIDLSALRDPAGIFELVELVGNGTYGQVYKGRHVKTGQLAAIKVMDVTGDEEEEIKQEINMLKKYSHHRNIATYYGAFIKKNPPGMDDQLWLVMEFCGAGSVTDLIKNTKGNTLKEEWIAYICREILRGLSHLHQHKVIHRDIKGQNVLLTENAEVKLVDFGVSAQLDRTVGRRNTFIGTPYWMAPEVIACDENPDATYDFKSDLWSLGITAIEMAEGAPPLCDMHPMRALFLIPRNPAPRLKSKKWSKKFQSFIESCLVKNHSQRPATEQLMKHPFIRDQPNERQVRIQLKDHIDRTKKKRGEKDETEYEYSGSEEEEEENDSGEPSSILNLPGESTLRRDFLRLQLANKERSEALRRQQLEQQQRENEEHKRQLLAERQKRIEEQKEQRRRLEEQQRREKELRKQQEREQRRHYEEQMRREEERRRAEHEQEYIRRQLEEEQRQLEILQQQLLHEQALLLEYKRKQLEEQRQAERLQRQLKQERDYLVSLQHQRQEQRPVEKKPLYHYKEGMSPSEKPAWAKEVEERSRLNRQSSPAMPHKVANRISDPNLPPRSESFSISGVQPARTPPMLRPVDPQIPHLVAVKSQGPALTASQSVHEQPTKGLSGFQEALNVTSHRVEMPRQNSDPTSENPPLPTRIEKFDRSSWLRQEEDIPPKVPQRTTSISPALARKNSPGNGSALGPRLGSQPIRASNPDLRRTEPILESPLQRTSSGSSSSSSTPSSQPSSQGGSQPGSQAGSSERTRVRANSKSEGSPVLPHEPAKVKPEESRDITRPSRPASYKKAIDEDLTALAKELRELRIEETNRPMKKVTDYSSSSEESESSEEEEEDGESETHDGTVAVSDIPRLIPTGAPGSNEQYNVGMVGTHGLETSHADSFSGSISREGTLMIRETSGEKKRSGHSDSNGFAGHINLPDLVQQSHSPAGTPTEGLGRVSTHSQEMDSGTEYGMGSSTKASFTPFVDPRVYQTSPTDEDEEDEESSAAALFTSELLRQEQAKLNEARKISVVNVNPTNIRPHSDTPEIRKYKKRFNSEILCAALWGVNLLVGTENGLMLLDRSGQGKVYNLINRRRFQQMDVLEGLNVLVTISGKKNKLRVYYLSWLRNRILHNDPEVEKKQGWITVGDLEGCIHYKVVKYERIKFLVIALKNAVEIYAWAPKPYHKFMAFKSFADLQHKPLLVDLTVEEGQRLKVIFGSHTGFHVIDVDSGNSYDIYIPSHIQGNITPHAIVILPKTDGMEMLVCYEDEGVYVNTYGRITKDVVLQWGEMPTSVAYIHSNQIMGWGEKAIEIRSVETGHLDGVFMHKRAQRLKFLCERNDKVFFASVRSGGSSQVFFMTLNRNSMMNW
# Procedure: as §1
# [4] = target: T3, DYRK2 (Homo sapiens, UniProt Q92630)
# T3 sequence (Q92630 1-601): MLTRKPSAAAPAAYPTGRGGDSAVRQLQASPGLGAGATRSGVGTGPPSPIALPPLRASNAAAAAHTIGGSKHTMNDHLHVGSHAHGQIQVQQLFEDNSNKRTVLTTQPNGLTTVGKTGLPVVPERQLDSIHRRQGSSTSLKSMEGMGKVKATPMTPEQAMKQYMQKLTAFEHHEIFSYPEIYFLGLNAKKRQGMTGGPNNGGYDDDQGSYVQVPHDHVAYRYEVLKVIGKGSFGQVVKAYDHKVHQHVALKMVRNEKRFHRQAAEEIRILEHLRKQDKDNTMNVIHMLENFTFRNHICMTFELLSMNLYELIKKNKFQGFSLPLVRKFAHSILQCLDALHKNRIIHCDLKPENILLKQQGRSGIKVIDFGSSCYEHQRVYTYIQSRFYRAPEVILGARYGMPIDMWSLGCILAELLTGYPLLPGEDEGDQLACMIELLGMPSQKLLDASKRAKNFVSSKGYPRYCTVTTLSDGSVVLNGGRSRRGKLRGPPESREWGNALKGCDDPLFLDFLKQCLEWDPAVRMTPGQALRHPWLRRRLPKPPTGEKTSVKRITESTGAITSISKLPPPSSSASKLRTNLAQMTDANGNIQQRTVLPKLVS
# Procedure: as §1
structure (smiles),measurement,setting,value
CCN1CCN(c2ccc(Nc3cc(Nc4cccc5c4N(C(C)=O)CC5)ccn3)cc2)CC1 [Compound 1938],% Displacement Point 1,[1],-6.46%
same,% Displacement Point 2,[1],0.345%
same,% Displacement mean,[1],-3%
same,% Displacement Point 1,[2],2.26%
same,% Displacement Point 2,[2],10%
same,% Displacement mean,[2],6.32%
same,% Displacement Point 1,[3],23%
same,% Displacement Point 2,[3],25%
same,% Displacement mean,[3],24%
same,% Displacement Point 1,[4],23%
same,% Displacement Point 2,[4],1%
same,% Displacement mean,[4],12%
